The source of these data is PMC6541351, “Towards the preparation of synthetic outer membrane vesicle models with micromolar affinity to wheat germ agglutinin using a dialkyl thioglycoside” (Beilstein Journal of Organic Chemistry, 2019).

The assay has as its target T1, wheat germ agglutinin (WGA).
T1 construct: horseradish peroxidase-labelled WGA (WGA-HRP); homodimer
Nature of the assay: competitive enzyme-linked lectin assay (ELLA), WGA-HRP vs PAA-GlcNAc. The assay is classed as binding, Triticum aestivum.

One may read the IC50 as the concentration that gives 50% inhibition. Lower therefore signals higher potency. The compound `CC(=O)N[C@H]1C(O)O[C@H](CO)[C@@H](O)[C@@H]1O` (stereo partly shown) [GlcNAc] yielded an IC50 of 35 mM.
